Test results from US20240350497A1, “COMBINATION THERAPY FOR THE TREATMENT OF PAN-KRAS MUTATED CANCERS” (Tiziana Life Sciences PLC, priority 2021, published 2024).
Read-outs that look alike come from different tables or passages of the source.

Legend:
[1] = test system: cell lines harboring KRAS mutations; assay: sensitivity of KRAS mutant cell lines to CDK inhibitor in vitro; format: cell-based
From the text: (§1) FIG. 7A and FIG. 7B are plots showing dose-response curves of colorectal non-isogenic cells containing either wild type (WT) or mutated KRAS in response to CDK inhibitors AT7519 (FIG. 7A) or dinaciclib (FIG. 7B). The cyclin-dependent kinase, CDK1, is a synthetic lethal target for KRAS mutant tumors. KRAS mutant cells show increased activity of CDK1 (FIGS. 6A-6D). The inhibition of CDK1 causes a reduction in the S-phase of the cell cycle progression decreasing cell proliferation in KRAS mutant cells. This decreased cell cycle activity is observed by the modulation of Rb, a master control of the G1/S checkpoint. Through a series of experiments, including using parallel siRNA screens in KRAS mutant and wild type colorectal isogenic tumor cells and subsequently validated in a genetically diverse panel of 26 colorectal and pancreatic tumor cell models, the KRAS/CDK1 interaction has a synthetic lethal effect on cancer cells.

[2] = test system: KRAS mutant tumor xenografts; assay: KRAS mutant tumor xenografts treated with CDK inhibitor in vivo; design: species or system mice
From the text: FIG. 8A is a plot showing the change in tumor volume of KRAS mutant tumor xenografts in mice treated with vehicle control (DMSO) or the CDK inhibitor AZD5438.
FIG. 8B is a plot showing the percent survival of mice harboring KRAS mutant tumor xenografts following treatment with either vehicle control (DMSO) or the CDK inhibitor AZD5438. FIG. 8C is a chart showing the tumor weight in mice harboring KRAS mutant tumor xenografts following treatment with either vehicle control (DMSO) or the CDK inhibitor AZD5438. FIG. 8D is a series of images showing tumor shrinkage in mice harboring KRAS mutant tumor xenografts following treatment with the CDK inhibitor AZD5438.
as §1, with “The” for “FIG. 7A and FIG. 7B are plots showing dose-response curves of colorectal non-isogenic cells containing either wild type (WT) or mutated KRAS in response to CDK inhibitors AT7519 (FIG. 7A) or dinaciclib (FIG. 7B). The”

[3] = test system: HCT-116 human colon carcinoma; assay: milciclib in combination with 5-FU, HCT-116 human colon carcinoma xenograft; details: for animal deaths: single agents at the tested doses
Method: (§2) The efficacy of milciclib was tested in several human xenografts implanted in the hind flank region of athymic mice (FIG. 18). Models in nude mice included A2780 ovarian cancer, DU-145 prostatic cancer, BX-PC3 pancreatic cancer, A549 non-small cell lung cancer, MDA-MB-231 breast cancer, MIA-PACA-2 pancreatic cancer, A375 melanoma, CAPAN-1 pancreatic cancer, and HCT-116 colon cancer. The MIA-PACA-2 and CAPAN-1 pancreatic cancer cell lines both express KRAS mutants. The MIA-PACA-2 and CAPAN-1 cell lines tested with milciclib harbor the KRAS mutants, G12C and G12V, respectively. […] The HCT-116 colon cancer cell line expresses the G13D KRAS mutant, making up of 15.5% of CRC KRAS mutants Following implantation, tumors were allowed to establish to a size of 100 mm3 prior to oral administration of milciclib. In all these experiments, a daily bid treatment was administered for a maximum of 10 days.
Activity of milciclib has been tested in combination with 5-FU on HCT-116 human colon carcinoma cells (FIG. 10A). The HCT-116 cell line expresses the KRAS G13D mutant.

NSCLC = details: single agent, Phase II studies; cited from earlier work
[4] = test system: BX-PC3 human pancreatic carcinoma; assay: milciclib in combination with gemcitabine, BX-PC3 human pancreatic carcinoma, first experiment; details: for animal deaths: single agents at the tested doses
Method: A combination therapy of milciclib and the DNA damaging agent, gemcitabine, was treated on BX-PC3 human pancreatic carcinoma (FIG. 12A).

[5] = test system: BX-PC3 human pancreatic carcinoma; assay: milciclib in combination with gemcitabine, BX-PC3 human pancreatic carcinoma, second experiment; details: for animal deaths: single agents at the tested doses
Method: A second experiment was conducted of milciclib in combination with gemcitabine on BX-PC3 human pancreatic carcinoma (FIG. 12B and FIG. 12C).

[6] = test system: HCT-116 human colon carcinoma; assay: milciclib in combination with irinotecan, HCT-116 human colon carcinoma xenograft model; details: for animal deaths: single agents at the tested doses
Method: as §2
Topoisomerase enzymes control the manipulation of the structure of DNA necessary for replication.

[7] = test system: advanced solid malignancies; details: oral, phase I; cited from earlier work
MDA-MB-231 cells = MDA-MB-231 cells exposed to milciclib and DNA damaging agent, alone or in combination; format: cell-based, human; details: TNBC cells
Method: The use of milciclib in combination with five chemotherapeutic drugs already in use was tested for the treatment of TNBC including paclitaxel, doxorubicin, 5-FU, cisplatin, and cyclophosphamide. Potential synergistic effects with milciclib by exposing MDA-MB-231 cells to serial dilutions of milciclib and each DNA damaging agent, alone or in combination, in clinically relevant concentrations (FIG. 16A). […] Tumor proliferation was reduced by nearly 5 times for the combination treatment of milciclib and cisplatin compared to the vehicle treated group, assessed by Ki67 staining.

[8] = test system: MIA-PACA-2 pancreatic cancer (KRAS G12C); assay: human xenograft efficacy, MIA-PACA-2; format: in vivo, athymic mice; details: oral, daily bid treatment for a maximum of 10 days
[9] = test system: KRAS G12D LA2 pulmonary cancerous lesions; assay: transgenic mouse model KRAS G12D LA2, MRI; details: in vivo
Method: Milciclib was tested in a transgenic mouse model KRAS G12D LA2 that develops pulmonary cancerous lesions reminiscent of human lung adenocarcinomas. Milciclib was tested to follow longitudinal disease progression and evaluate therapeutic efficacy by using magnetic resonance imaging (MRI) and positron emission tomography (PET). […] The MRI methodology used in this study allow longitudinal monitoring of tumor development and response in a single animal, and furthermore, allows for more clinically relevant study design and increases its statistical relevance.

[10] = test system: N-592 human small cell carcinoma; details: for animal deaths: single agents at the tested doses
Method: Milciclib was tested orally at the doses of 20 and 30 mg/kg twice a day for 17 consecutive days.

[11] = test system: MDA-MB-231 human breast cancer
Method: FIG. 15A is a series of plots showing change in tumor volume in mice bearing MDA-MB-231 human breast cancer tumor xenografts following treatment with 40 mg/kg milciclib (PHA-848125) (n=8) or vehicle control (5% glucose solution) (n=8) via oral gavage twice daily on a 5-days-on/2-days-off schedule for four weeks. FIG. 15B is a series of images and a chart showing immunohistochemistry staining of Ki67 and mitotic nucleus counts, and corresponding quantification in tumor tissue collected 48 hours after the last treatment with milciclib (PHA-848125) or vehicle control for 3 weeks.

[12] = test system: A2780 human ovarian carcinoma; assay: A2780 human ovarian carcinoma xenografts, oral milciclib; format: in vivo, mice
Method: Pathogenic KRAS mutations were present in 606 patients of 7,325 epithelial ovarian cancers from the Caris Database, about 8.3% of the total. The frequency of KRAS mutation by subtype occurred in the following: 36.4% G12D, 35.8% G12V, and 8.4% G12C. A dose-dependent inhibition of tumor growth was measured in mice harboring A2780 human ovarian carcinoma xenografts administered with daily oral administration of milciclib.

[13] = test system: CAPAN-1 pancreatic cancer (KRAS G12V); assay: human xenograft efficacy, CAPAN-1; format: in vivo, athymic mice; details: oral, daily bid treatment for a maximum of 10 days
[14] = milciclib 20 mg/kg orally twice a day for 9 consecutive days
[15] = milciclib 40 mg/kg orally twice a day for 9 consecutive days

## O=C(NC1CCNCC1)c1[nH]ncc1NC(=O)c1c(Cl)cccc1Cl [AT519]
[1]
  sensitivity of KRAS mutant versus wild type cells: increased sensitivity

## Cc1ncc(-c2ccnc(Nc3ccc(S(C)(=O)=O)cc3)n2)n1C(C)C [AZD5438]
[2]
  sensitivity of KRAS mutant tumors: increased sensitivity

## O=c1[nH]cc(F)c(=O)[nH]1 [Compound 5-FU, 5-fluorouracil, reference compound]
[3]; 5-FU 50 mg/kg IV q7dx2
  TGI: 33%
[3]
  animal deaths: No animal died

## Nc1ccn([C@@H]2O[C@H](CO)[C@@H](O)C2(F)F)c(=O)n1 [gemcitabine, reference compound]
NSCLC
  median survival: 9 months
  objective response rate: 20-25%
[4]; gemcitabine 80 mg/kg IV
  TGI: 61%
[4]
  animal deaths: No animal died
[5]; gemcitabine 80 mg/kg IV q4dx3
  TGI: 70%
[5]; gemcitabine 80 mg/kg IV q7dx3
  TGI: 62%
[5]
  animal deaths: No animal died

## CCc1c2c(nc3ccc(OC(=O)N4CCC(N5CCCCC5)CC4)cc13)-c1cc3c(c(=O)n1C2)COC(=O)[C@]3(O)CC [irinotecan, reference compound]
[6]; irinotecan 45 mg/kg IV q4dx3
  TGI: 84%
[6]
  animal deaths: No animal died

## CNC(=O)c1nn(C)c2c1C(C)(C)Cc1cnc(Nc3ccc(N4CCN(C)CC4)cc3)nc1-2 [milciclib, N,1,4,4-tetramethyl-8-((4-(4-methylpiperazin-1-yl)phenyl)amino)-4,5-dihydro-1H-pyrazolo[4,3-h]quinazoline-3-carboxamide]
[7]
  RP2D: 150 mg/day
  tolerability: well-tolerated
[6]; milciclib 20 mg/Kg orally twice a day for 9 days
  TGI: 38%
[6]; milciclib 30 mg/Kg orally twice a day for 9 days
  TGI: 60%
[6]
  animal deaths: No animal died
[4]; [14]
  TGI: 61%
[4]; [15]
  TGI: 79%
[4]
  animal deaths: No animal died
MDA-MB-231 cells
  interaction with cisplatin, cisplatin-induced apoptosis: acts synergistically
[8]
  maximal inhibition: 70%
[9]
  tumor growth inhibition at the end of treatment, measured by MRI: significant tumor growth inhibition
[10]; milciclib 20 mg/kg orally twice a day for 17 consecutive days
  TGI: 34%
[10]; milciclib 30 mg/kg orally twice a day for 17 consecutive days
  TGI: 56%
[10]
  animal deaths: No animal died
[11]; 40 mg/kg oral gavage twice daily, 5-days-on/2-days-off
  tumor growth: arrests tumor growth
[11]; mouse, in vivo
  tolerability: well tolerated
[12]; 20 mg/kg bid
  tumor growth inhibition (TGI): 53%
[12]; 30 mg/kg bid
  tumor growth inhibition (TGI): 76%
[12]; 40 mg/kg bid
  tumor growth inhibition (TGI): 91%
[3]; milciclib 20 mg/kg orally twice a day for 12 days
  TGI: 42%
[3]; milciclib 30 mg/kg orally twice a day for 12 days
  TGI: 64%
[3]
  animal deaths: No animal died
[13]
  maximal inhibition: 65%
[5]; [14]
  TGI: 74%
[5]; milciclib 20 mg/kg twice a day for 15 days
  TGI: 80%
[5]; [15]
  TGI: 88%
[5]
  animal deaths: No animal died

## CC[C@@]1(O)C(=O)OCc2c1cc1n(c2=O)Cc2cc3c(CN(C)C)c(O)ccc3nc2-1 [topotecan, reference compound]
[10]
  animal deaths: No animal died
[10]; topotecan 6 mg/kg IV q4dx5
  TGI: 71%
